Experimental data from patent US8461193B2, “Substituted pyrrolo-pyrazole derivatives active as kinase inhibitors” (Nerviano Medical Sciences S.R.L., priority 2005, dated 2013).
Like-named read-outs stand apart in the source and are kept apart here.

Columns and labels:
IGF1R [1] = target: T1, IGF1R (Homo sapiens, UniProt P08069); experiment: Biochemical assay for inhibitors of IGF-1R kinase activity (trans-phosphorylation assay, robotized Dowex assay); set-up: amino acid residues 960-1367 of precursor protein; made in house; host or cells: H5 insect cells (baculovirus; virus made in Sf21 cells)
Experimental: ID NO: 2). […] The inhibitory activity of putative kinase inhibitors and the potency of selected compounds were determined using a trans-phosphorylation assay.
Target sequence in this assay (P08069 960-1367): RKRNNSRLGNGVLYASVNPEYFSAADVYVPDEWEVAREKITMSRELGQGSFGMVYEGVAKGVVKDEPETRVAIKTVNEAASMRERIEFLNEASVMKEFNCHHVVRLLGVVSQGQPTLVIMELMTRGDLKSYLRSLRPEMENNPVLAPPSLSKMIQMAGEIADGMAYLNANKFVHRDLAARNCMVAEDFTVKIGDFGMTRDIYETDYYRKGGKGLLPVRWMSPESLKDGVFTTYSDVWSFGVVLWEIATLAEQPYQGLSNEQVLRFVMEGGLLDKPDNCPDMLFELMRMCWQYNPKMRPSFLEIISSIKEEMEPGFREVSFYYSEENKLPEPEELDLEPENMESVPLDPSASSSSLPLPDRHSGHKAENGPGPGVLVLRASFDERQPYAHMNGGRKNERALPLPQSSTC

IGF1R [2] = target: T1, IGF1R; experiment: Western blot analysis of receptor phosphorylation following stimulation with IGF-1 in MCF-7 human breast cancer cells; assay type: cell-based; set-up: endogenous in cells; host or cells: MCF-7 (ATCC# HTB-22); conditions: starved MCF-7 cells, increasing concentrations of compound prior to 10 nM IGF1
Experimental: Cell-Based Assays for Inhibitors of IGF-1R Kinase Activity Western Blot Analysis of Receptor Phosphorylation Following Stimulation with IGF-1 in MCF-7 Human Breast Cancer Cells
MCF-7 cells (ATCC# HTB-22) were seeded in 12-well tissue culture plates at 2×10^5 cells/well in E-MEM medium (MEM+Earle's BSS+2 mM glutamine+0.1 mM non-essential amino acids)+10% FCS, and incubated overnight at 37° C., 5% CO2, 100% relative humidity. Cells were then starved by replacing E-MEM+10% FCS with E-MEM+0.1% BSA, and incubating overnight. After this incubation, wells were treated with desired concentrations of compound for 1 hour at 37° C., and were then stimulated with 10 nM recombinant human IGF-1 (Invitrogen, Carlsbad, Calif., USA) for 10 minutes at 37° C. […] Cell lysates were cleared by centrifugation at 10,000×g for 5 minutes, and 10 microg/lane of cleared lysate protein were run on NuPAGE gels (NuPAGE 4-12% 10-lane Bis-Tris gels, Invitrogen) with MOPS running buffer, then transferred onto Hybond-ECL nitrocellulose filters (Amersham Biosciences, Little Chalfont, Buckinghamshire, UK) using Mini PROTEAN II chambers (Bio-Rad Laboratories, Hercules, Calif., USA). […] In either case, filters were then washed for 30 minutes with several changes of TBS+0.15% Tween 20, and incubated for 1 hour in washing buffer containing 1/5000 dilution of horseradish peroxidase conjugated anti-rabbit IgG (Amersham, product #NA934), then were washed again and developed using the ECL chemiluminescence system (Amersham) according to manufacturer's recommendations. Unless otherwise stated, reagents used were from Sigma-Aldrich, St. Louis, Mo., USA.
Target sequence in this assay (P08069 31-1367): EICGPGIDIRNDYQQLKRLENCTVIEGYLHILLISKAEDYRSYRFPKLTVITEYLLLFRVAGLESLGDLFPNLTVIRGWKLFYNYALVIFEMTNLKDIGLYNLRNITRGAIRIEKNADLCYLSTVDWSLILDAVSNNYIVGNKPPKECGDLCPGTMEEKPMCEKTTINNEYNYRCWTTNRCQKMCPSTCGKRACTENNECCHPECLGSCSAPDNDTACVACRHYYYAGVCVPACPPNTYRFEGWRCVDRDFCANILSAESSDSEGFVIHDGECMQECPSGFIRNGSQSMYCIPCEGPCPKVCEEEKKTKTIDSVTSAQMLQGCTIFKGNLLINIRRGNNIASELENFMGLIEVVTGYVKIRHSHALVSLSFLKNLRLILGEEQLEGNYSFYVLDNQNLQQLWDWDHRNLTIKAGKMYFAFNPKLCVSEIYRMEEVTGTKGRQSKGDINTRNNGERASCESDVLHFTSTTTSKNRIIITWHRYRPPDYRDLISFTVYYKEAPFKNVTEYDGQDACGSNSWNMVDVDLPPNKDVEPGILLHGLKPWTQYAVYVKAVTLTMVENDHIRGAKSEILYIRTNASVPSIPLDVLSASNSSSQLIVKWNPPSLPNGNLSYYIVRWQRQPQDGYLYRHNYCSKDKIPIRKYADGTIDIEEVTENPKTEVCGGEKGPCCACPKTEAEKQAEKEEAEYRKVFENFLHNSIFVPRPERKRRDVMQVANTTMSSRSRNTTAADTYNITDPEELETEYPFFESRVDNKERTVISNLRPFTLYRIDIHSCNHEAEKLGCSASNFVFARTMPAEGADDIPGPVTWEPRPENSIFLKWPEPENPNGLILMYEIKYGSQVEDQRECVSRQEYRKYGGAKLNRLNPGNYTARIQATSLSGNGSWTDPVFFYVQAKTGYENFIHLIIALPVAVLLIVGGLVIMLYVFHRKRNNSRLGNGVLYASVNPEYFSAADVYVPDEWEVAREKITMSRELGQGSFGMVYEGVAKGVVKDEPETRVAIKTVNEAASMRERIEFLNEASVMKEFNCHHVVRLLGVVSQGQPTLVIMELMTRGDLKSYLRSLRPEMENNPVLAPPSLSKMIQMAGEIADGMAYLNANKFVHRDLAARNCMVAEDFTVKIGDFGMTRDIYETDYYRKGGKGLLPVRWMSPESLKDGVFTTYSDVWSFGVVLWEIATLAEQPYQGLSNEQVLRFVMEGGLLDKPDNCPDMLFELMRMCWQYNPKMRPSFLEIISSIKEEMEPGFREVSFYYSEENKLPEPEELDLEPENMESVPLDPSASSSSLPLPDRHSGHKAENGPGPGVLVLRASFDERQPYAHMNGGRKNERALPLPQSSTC

[3] = system: IGF1-induced S6 phosphorylation; experiment: Growth factor induced S6 ribosomal protein phosphorylation in primary human fibroblasts; assay type: cell-based; conditions: normal human dermal fibroblasts (NHDF), stimulated with 10 nM IGF-1; read-out: Inhibition of IGF1-induced S6 phosphorylation IC50
Experimental: Growth Factor Induced S6 Ribosomal Protein Phosphorylation in Primary Human Fibroblasts.
Phosphorylation of S6 ribosomal protein in response to growth factor stimulation of normal human dermal fibroblasts (NHDF) was used to assess compound potency in inhibiting IGF-1 induced signal transduction in cells, and selectivity towards EGF and PDGF stimulus. NHDF cells obtained from PromoCell (Heidelberg, Germany), were maintained at 37° C. in a humidified atmosphere with 5% CO2 in complete Fibroblast Growth Medium (PromoCell). For assay, NHDF were seeded in 384-well tissue culture plates (clear- and flat-bottomed black plates; Matrix Technologies Inc., Hudson, N.H., USA) at a density of 5000 cells/well in serum-free medium containing 0.1% bovine serum albumin (BSA) and incubated for 5 days. Starved cells were treated for 1 hour with desired doses of compounds and then stimulated for a further 2 hours with either 10 nM IGF-1 (Invitrogen Corp., CA, USA), 10 nM EGF (Gibco BRL, USA) or 1 nM PDGF-B/B (Roche Diagnostics GmbH, Germany). Cells were then fixed in PBS/3.7% paraformaldehyde for 20 minutes at room temperature, washed ×2 with PBS, and permeabilized with PBS/0.3% Triton X-100 for 15 minutes. Wells were then saturated with PBS/1% non-fat dry milk (Bio-Rad Laboratories, Hercules, Calif., USA) for 1 hour, and then probed for 1 hour at 37° C. with anti-phospho-S6 (Ser 235/236) antibody (Cell Signaling Technology, Beverly, Mass., USA, cat. #2211) at 1/200 dilution in PBS/1% milk/0.3% Tween 20. […] Fluorescence images in the DAPI and Cy5™ channels were automatically acquired, stored and analysed using a Cellomics ArrayScan™ IV instrument (Cellomics, Pittsburgh, USA); the Cellomics Cytotoxicity Algorithm was used to quantify cytoplasmic fluorescence associated with phospho-S6 (Cy5™ signal parameter: “Mean Lyso Mass-pH”) for each cell in 10 fields/well, and eventually expressed as a mean population value. […]

[4] = 6 nM enzyme, 6 microM ATP, 10 microM peptide substrate, read-out: IGF1R IC50 (μM) Biochemical assay

IC50 (IGF1R [1]; [4]) | IC50 (IGF1R [1]) | SMILES | inhibition of IGF1-induced IGF1R auto-phosphorylation (pIGF1R band, FIG. 1) (IGF1R [2]) | IC50 [3]
0.17 µM | – | CN1CCN(c2ccc(C(=O)Nc3n[nH]c4c3CN(S(=O)(=O)c3cc(F)cc(F)c3)C4(C)C)c(NC(=O)[C@@H]3CCCO3)c2)CC1 [Compound 1, (S)-Tetrahydro-furan-2-carboxylic acid [2-[5-(3,5-difluoro-benzenesulfonyl)-6,6-dimethyl-1,4,5,6-tetrahydro-pyrrolo[3,4-c]pyrazol-3-ylcarbamoyl]-5-(4-methyl-piperazin-1-yl)-phenyl]-amide] | inhibition of IGF1-induced IGF1R auto-phosphorylation | 740 nM
– | 0.09 µM | CN1CCN(c2ccc(C(=O)Nc3n[nH]c4c3CN(S(=O)(=O)c3cc(F)cc(F)c3)C4(C)C)c(NC(=O)c3cc[nH]c3)c2)CC1 [Compound 11, 1H-pyrrole-3-carboxylic acid [2-[5-(3,5-difluoro-benzenesulfonyl)-6,6-dimethyl-1,4,5,6-tetrahydro-pyrrolo[3,4-c]pyrazol-3-ylcarbamoyl]-5-(4-methyl-piperazin-1-yl)-phenyl]-amide] | inhibition of IGF1-induced IGF1R auto-phosphorylation | 300 nM
0.46 µM | – | CC(C)CNc1cc(N2CCN(C)CC2)ccc1C(=O)Nc1n[nH]c2c1CN(S(=O)(=O)c1cc(F)cc(F)c1)C2(C)C.Cl [Compound 90, N-[5-(3,5-Difluoro-benzenesulfonyl)-6,6-dimethyl-1,4,5,6-tetrahydro-pyrrolo[3,4-c]pyrazol-3-yl]-2-isobutylamino-4-(4-methyl-piperazin-1-yl)-benzamide hydrochloride] | inhibition of IGF1-induced IGF1R auto-phosphorylation | 5300 nM
